In patent US10273517B2 (The Board of Regents of the University of Oklahoma, priority 2011, dated 2019):
Entries after “also recorded” stand apart in the source; their conditions may differ.

Assays:
[1] = system: recombinant Comononas testosteroni synthase (CtTS); assay: Polymer grafting of testosteronan onto acceptors using CtTS (agarose gel, stoichiometric size control); format: biochemical, Comamonas testosteroni; details: acceptor 15 or 30 μM, monosaccharides/glycosides first extended step-wise with two UDP-sugars, Stains-all
Protocol: The recombinant Comononas testosteroni synthase was incubated with both UDP-sugars and various acceptors (note: monosaccharides or glycosides first subjected to two extension steps via CtTS enzyme before adding both UDP sugars) OR ‘no acceptor’ in reaction buffer. The reactions were then subjected to agarose gel analysis with Stains-all dye detection. From left to right, the lanes are as follows: (1) HA LoLadder standard; (2) ‘no acceptor’ (de novo synthesis); (3) p-Nitrophenyl-β-D-glucuronide (15 μM); (4) p-Nitrophenyl-β-D-glucuronide (30 μM); (5) GlcUA (15 μM); (6) GlcUA (30 μM); (7) GlcNAc (15 μM); (8) GlcNAc (30 μM); (9) AFA=GlcUA-fluorescein-GlcUA (15 μM); (10) AFA (30 μM); (11) Hep4=base de-acetylated, nitrous acid, & reduced heparosan tetrasaccharide (15 μM); and (12) Hep4 (30 μM). Size control (i.e., differences in molecular weight between 15 and 30 μM) is noted with certain acceptors.
The recombinant Comononas testosteroni synthase was incubated with both UDP-sugars and various acceptors OR ‘no acceptor’ in reaction buffer. From left to right in FIG. 21, the lanes are listed below in Table 3.
For all acceptors except Hep4 and AFA, the final acceptor was produced in situ before elongation by extending step-wise with the next two appropriate UDP-sugars. For example, GlcUA was extended first with UDP-GlcNAc, then UDP-GlcUA (making a trisaccharide) before the complete polymerization reaction components (i.e., a mixture of many equivalents of UDP-GlcUA and UDP-GlcNAc together to allow the production of long polymer chains) were added. Two different concentrations of the acceptor were added (either 15 or 30 μM as noted) to test the effect of stoichiometric size control.

[2] = system: recombinant Comamonas testosteronan synthase (CtTS); assay: Radiolabeled sugar incorporation assay, donor sugar specificity of CtTS; format: biochemical, Comamonas testosteroni KF-1; details: unlabeled UDP-sugar 1 mM, clarified lysate, 30 minutes at 22° C.; for incorporation of [3H]GlcNAc with the unlabeled UDP-sugar as second precursor: UDP-[3H]GlcNAc tracer; for activity (incorporation of [3H]GlcUA) with the unlabeled UDP-sugar as second precursor: UDP-[3H]GlcUA tracer
Protocol: FIG. 3 graphically depicts the donor specificity of CtTS.
In order to determine the preferred hexosamine sugar donor utilized for putative GAG-like heteropolysaccharide biosynthesis, activity assays were performed with clarified lysates from recombinant bacteria expressing CtTS using two different UDP-sugars simultaneously in polymerization reactions in vitro. […] By further studying acceptor specificity and using GAG degrading enzymes that are specific for these GAGs, the nature of the polysaccharide formed by CtTS in vitro was characterized.
(§1) Radiolabeled sugar incorporation assays (25 μl, 30 minutes at 22° C.) were performed using clarified lysates (60 μg total protein) in the presence of 0.05 mM UDP-GlcUA or UDP-GlcNAc as carrier with UDP-[^3H]GlcUA or UDP-[^3H]GlcNAc (0.1 μCi/assay) (NEN Perkin Elmer, Waltham, Mass.) with various unlabeled UDP-sugars (1 mM) or no second sugar as a negative control. The reaction buffer was 50 mM Tris, pH 7.2, 5 mM MgCl2; these conditions were obtained after limited optimization trials. Certain reactions used acceptors (1 μg) to bypass de novo initiation, including HA, heparosan, or Ct polysaccharide (sonicated 10 minutes on ice to increase the number of termini).
(§2) Reactions were incubated at the indicated temperatures for the times noted, and then stopped with 2% final SDS and separated by descending paper chromatography (65:35 ethanol/1 M ammonium acetate buffer, Whatman 3MM paper). This method enabled the separation of GAG polysaccharides with greater than ^˜14 sugar units, which remain at the origin, from smaller oligomers and unincorporated nucleotide sugars that migrate down the strip. The origin of the strip was cut out and subjected to liquid scintillation counting (BIOSAFE™, RPI Corp, Mt. Prospect, Ill.).

[3] = system: recombinant Comamonas testosteronan synthase (CtTS); assay: Radiolabeled sugar incorporation assay, divalent cation specificity of CtTS; format: biochemical, Comamonas testosteroni KF-1; details: 5 mM Mg2+ or 5 mM Mn2+ or 2 mM EDTA; 30 minutes at 22° C.
Protocol: Radiolabeled sugar incorporation assays were performed (30 minutes at 22° C., as described in methods) in the presence of 5 mM Mg^2+ or 5 mM Mn^2+ or 2 mM EDTA.
as §1, §2

[4] = biological target: heparin lyase I (Pedobacter heparinus, UniProt Q05819); assay: GAG degrading enzyme challenge: heparin lyase I; format: in vitro ADME
Excerpt: (§3) Because of this finding, it is believed that while CtTS is able to utilize heparosan as an acceptor molecule due to a hypothetical shared structural feature, this GAG is not the native substrate.

[5] = system: recombinant Comamonas testosteronan synthase (CtTS); assay: Radiolabeled sugar polymerization assay, acceptor specificity of CtTS; format: biochemical, Comamonas testosteroni KF-1; details: radiolabeled UDP-sugars; acceptor 1 μg
Protocol: FIG. 4 graphically depicts the acceptor specificity of CtTS. Extension of exogenous polysaccharide by recombinant Comamonas testosteronan synthase was measured. Activity assays were performed with radiolabeled UDP-sugars in the presence of hyaluronan, unsulfated chondroitin, heparosan or sonicated Comamonas polysaccharide.
Acceptor Specificity of CtTS: To identify the acceptor preference of CtTS, radiolabeled sugar polymerization assays were performed in the presence of various GAG acceptors. In many, but not all, GAG synthases, exogenous cognate polysaccharide will increase the signal in sugar incorporation assays by bypassing the slower de novo initiation phase (DeAngelis et al., 1999 and 2004); the elongation phase is much more rapid; thus, higher activity is observed. Typically, non-cognate GAG polymers with different glycosidic linkage patterns are very poor or non-functional acceptors for the known GAG synthases in vitro. Hyaluronan, unsulfated chondroitin and heparosan as well as polysaccharide extract from C. testosteroni were tested. Hyaluronan and heparosan tetrasaccharides were also tested for their abilities to act as acceptors. […] To confirm that CtTS is able to directly extend a heparosan acceptor so as to rule out an artifactual stabilizing or conformational effect in the radioassays, an ^125I-labeled tetrasaccharide heparosan acceptor was also tested in vitro in the presence of only UDP-GlcNAc for single sugar addition, or UDP-GlcNAc and UDP-GlcUA for polymerization.
Radiolabeled sugar incorporation assays (25 μl, 30 minutes at 22° C.) were performed using clarified lysates (60 μg total protein) in the presence of 0.05 mM UDP-GlcUA or UDP-GlcNAc as carrier with UDP-[^3H]GlcUA or UDP-[^3H]GlcNAc (0.1 μCi/assay) (NEN Perkin Elmer, Waltham, Mass.) with various unlabeled UDP-sugars (1 mM) or no second sugar as a negative control. The reaction buffer was 50 mM Tris, pH 7.2, 5 mM MgCl2; these conditions were obtained after limited optimization trials. […]
Target sequence in this assay (as listed by the source): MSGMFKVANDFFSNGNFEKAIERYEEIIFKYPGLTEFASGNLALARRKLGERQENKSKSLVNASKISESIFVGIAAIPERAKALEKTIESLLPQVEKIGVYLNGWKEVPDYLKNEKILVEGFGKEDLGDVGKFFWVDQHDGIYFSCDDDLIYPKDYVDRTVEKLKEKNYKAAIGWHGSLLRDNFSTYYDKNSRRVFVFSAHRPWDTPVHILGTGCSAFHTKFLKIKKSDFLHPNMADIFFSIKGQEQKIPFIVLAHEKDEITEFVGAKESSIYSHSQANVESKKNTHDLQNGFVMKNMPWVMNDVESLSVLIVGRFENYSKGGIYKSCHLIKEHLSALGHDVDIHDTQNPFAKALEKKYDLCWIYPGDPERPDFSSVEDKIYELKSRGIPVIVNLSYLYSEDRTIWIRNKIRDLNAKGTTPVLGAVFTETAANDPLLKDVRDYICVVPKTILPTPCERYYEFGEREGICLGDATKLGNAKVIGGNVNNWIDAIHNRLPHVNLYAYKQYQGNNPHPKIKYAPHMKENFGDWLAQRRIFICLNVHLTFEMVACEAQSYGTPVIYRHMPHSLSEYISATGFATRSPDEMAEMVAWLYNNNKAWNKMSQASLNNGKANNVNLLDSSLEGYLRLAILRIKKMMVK

[6] = system: Proteus vulgaris chondroitinase ABC; assay: GAG degrading enzyme challenge: chondroitinase ABC; format: in vitro ADME
Excerpt: as §3

[7] = system: Streptomyces hyalurolyticus HA lyase; assay: GAG degrading enzyme challenge: HA lyase; format: in vitro ADME
Excerpt: as §3

Chain of heparin lyase I (Q05819 22-384): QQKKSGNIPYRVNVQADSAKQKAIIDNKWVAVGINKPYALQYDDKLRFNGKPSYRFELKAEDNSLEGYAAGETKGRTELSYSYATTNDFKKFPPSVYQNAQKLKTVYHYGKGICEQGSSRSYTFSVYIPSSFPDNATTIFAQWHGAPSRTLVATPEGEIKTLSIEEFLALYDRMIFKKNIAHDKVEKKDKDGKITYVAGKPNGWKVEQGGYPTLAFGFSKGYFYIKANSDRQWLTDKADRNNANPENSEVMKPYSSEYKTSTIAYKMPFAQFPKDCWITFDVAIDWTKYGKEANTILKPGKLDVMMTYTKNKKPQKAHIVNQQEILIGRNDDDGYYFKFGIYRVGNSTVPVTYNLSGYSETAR

Compound: O=C(O)[C@H]1O[C@@H](Oc2ccc([N+](=O)[O-])cc2)[C@H](O)[C@@H](O)[C@@H]1O [p-Nitrophenyl-D-glucuronide, p-Nitrophenyl-β-D-glucuronide]
- stoichiometric size control of testosteronan product by acceptor [1]: allowed efficient size control

Compound: GlcUA-fluorescein-GlcUA [AFA]
- stoichiometric size control of testosteronan product by acceptor [1]: efficient size control

Compound: O=C(O)[C@H]1O[C@H](OP(=O)(O)OP(=O)(O)OC[C@H]2O[C@@H](n3ccc(=O)[nH]c3=O)[C@H](O)[C@@H]2O)[C@H](O)[C@@H](O)[C@H]1O [UDP-GalUA]
- incorporation of [3H]GlcNAc with the unlabeled UDP-sugar as second precursor [2]: only the reactions containing UDP-GlcUA showed significant incorporation

Compound: [Mn+2] [Mn^2+]
- GT activity of CtTS in the presence of divalent cation or chelator [3]: supported GT activity

Compound: [-4-D-GlcUA-α1,4-D-GlcNAc-α1-]n [testosteronan]
- sensitivity to degradation by heparin lyase I [4]: did not digest

Compound: O=C(O)[C@H]1O[C@H](OP(=O)(O)OP(=O)(O)OC[C@H]2O[C@@H](n3ccc(=O)[nH]c3=O)[C@H](O)[C@@H]2O)[C@H](O)[C@@H](O)[C@@H]1O [UDP-GlcUA]
- incorporation of [3H]GlcNAc with the unlabeled UDP-sugar as second precursor [2]: significant incorporation

Compound: CC(=O)N[C@H]1[C@@H](OP(=O)(O)OP(=O)(O)OC[C@H]2O[C@@H](n3ccc(=O)[nH]c3=O)[C@H](O)[C@@H]2O)O[C@H](CO)[C@@H](O)[C@@H]1O [UDP-GlcNAc]
- activity (incorporation of [3H]GlcUA) with the unlabeled UDP-sugar as second precursor [2]: Significant activity

Compound: CC(=O)N[C@H]1C(O)O[C@H](CO)[C@@H](O)[C@@H]1O (stereo partly shown) [GlcNAc, N-acetylglucosamine]
- stoichiometric size control of testosteronan product by acceptor [1]: did not

Compound: O=C(O)CN(CCN(CC(=O)O)CC(=O)O)CC(=O)O [EDTA]
- GT activity of CtTS in the presence of divalent cation or chelator [3]: eradicated the polymerization signal

Compound: O=C(O)[C@@H]1O[C@@H](OP(=O)(O)OP(=O)(O)OC[C@H]2O[C@@H](n3ccc(=O)[nH]c3=O)[C@H](O)[C@@H]2O)[C@H](O)[C@@H](O)[C@@H]1O [UDP-IdoUA]
- incorporation of [3H]GlcNAc with the unlabeled UDP-sugar as second precursor [2]: only the reactions containing UDP-GlcUA showed significant incorporation

Compound: [-4-D-GlcUA-β1,3-D-GlcNAc-β1-]n [hyaluronan]
- use of exogenous GAG polysaccharide as acceptor by CtTS [5]: not

Compound: [Mg+2] [Mg^2+]
- GT activity of CtTS in the presence of divalent cation or chelator [3]: roughly twice as for Mn^2+

Compound: chondroitin
- use of exogenous GAG polysaccharide as acceptor by CtTS [5]: not

Compound: [-4-D-GlcUA-α1,4-D-GlcNAc-α1-]n [synthetic polysaccharide]
- sensitivity to degradation by Proteus vulgaris chondroitinase ABC [6]: insensitive to degradation
- sensitivity to degradation by heparin lyase I [4]: insensitive to degradation
- sensitivity to degradation by Streptomyces hyalurolyticus HA lyase [7]: insensitive to degradation

Compound: CC(=O)N[C@H]1[C@@H](OP(=O)(O)OP(=O)(O)OC[C@H]2O[C@@H](n3ccc(=O)[nH]c3=O)[C@H](O)[C@@H]2O)O[C@H](CO)[C@H](O)[C@@H]1O [UDP-GalNAc]
- activity (incorporation of [3H]GlcUA) with the unlabeled UDP-sugar as second precursor [2]: not

Compound: [-4-D-GlcUA-β1,4-D-GlcNAc-α1-]n [heparosan]
- use of exogenous GAG polysaccharide as acceptor by CtTS [5]: able to use; also recorded: capable of utilizing

Compound: O=C[C@H](O)[C@@H](O)[C@H](O)[C@H](O)C(=O)O [GlcUA, glucuronic acid]
- stoichiometric size control of testosteronan product by acceptor [1]: allowed efficient size control
